Each compound was assayed against MMP-13 (Homo sapiens, UniProt P45452) (assay: EnzoLyte 520 Generic MMP Assay Kit, 5-FAM/QXL520 FRET peptide substrate).
Assay type: biochemical
Text: The EnzoLyte™ 520 Generic MMP Assay Kit (AnaSpec Inc.) can detect the activity of several MMPs including MMP-1, 2, 3, 7, 8, 9, 13, and 14. This kit uses a 5-FAM/QXL™520 fluorescence resonance energy transfer (FRET) peptide as an MMP substrate.

IC50 [nM] | Compound
180 | CNC(=O)[C@@H](NC(=O)c1ccc(-c2cccc(CNC(=O)c3ccnnc3)c2)o1)C(C)C [N-[3-(5-{[(1S)-2-methyl-1-(methylcarbamoyl)propyl]carbamoyl}-2-furyl)benzyl]pyridazine-4-carboxamide]
101 | CNC(=O)[C@@H](NC(=O)c1ccc(-c2cccc(CNC(=O)C3CCCCO3)c2)o1)C(C)C (stereo partly drawn) [N-[3-(5-{[(1S)-2-methyl-1-(methylcarbamoyl)propyl]carbamoyl}-2-furyl)benzyl]tetrahydro-2H-pyran-2-carboxamide]
337 | CNC(=O)[C@@H](NC(=O)c1ccc(-c2cccc(CNC(=O)C3CCOCC3)c2)o1)C(C)C [N-[3-(5-{[(1S)-2-methyl-1-(methylcarbamoyl)propyl]carbamoyl}-2-furyl)benzyl]tetrahydro-2H-pyran-4-carboxamide]
496 | CNC(=O)[C@@H](NC(=O)c1ccc(-c2ccc(NC(=O)c3cc4ccccc4o3)cc2)o1)C1CCCCC1 [N-[4-(5-{[(1S)-1-cyclohexyl-2-(methylamino)-2-oxoethyl]carbamoyl}furan-2-yl)phenyl]-1-benzofuran-2-carboxamide]
140 | CNC(=O)[C@@H](NC(=O)c1ccc(-c2ccc(NC(=O)c3cn(C)cn3)cc2)o1)C1CCCCC1 [N-[4-(5-{[(1S)-1-cyclohexyl-2-(methylamino)-2-oxoethyl]carbamoyl}furan-2-yl)phenyl]-1-methyl-1H-imidazole-4-carboxamide]
31 | CNC(=O)[C@@H](NC(=O)c1ccc(-c2ccc(NC(=O)c3ccn(C)n3)cc2)o1)C1CCCCC1 [N-[4-(5-{[(1S)-1-cyclohexyl-2-(methylamino)-2-oxoethyl]carbamoyl}furan-2-yl)phenyl]-1-methyl-1H-pyrazole-3-carboxamide]
180 | CNC(=O)[C@@H](NC(=O)c1ccc(-c2ccc(NC(=O)c3cnn(C)c3)cc2)o1)C1CCCCC1 [N-[4-(5-{[(1S)-1-cyclohexyl-2-(methylamino)-2-oxoethyl]carbamoyl}furan-2-yl)phenyl]-1-methyl-1H-pyrazole-4-carboxamide]
99 | CNC(=O)[C@@H](NC(=O)c1ccc(-c2ccc(NC(=O)c3ccnn3C)cc2)o1)C1CCCCC1 [N-[4-(5-{[(1S)-1-cyclohexyl-2-(methylamino)-2-oxoethyl]carbamoyl}furan-2-yl)phenyl]-1-methyl-1H-pyrazole-5-carboxamide]
93 | CNC(=O)[C@@H](NC(=O)c1ccc(-c2ccc(NC(=O)c3occc3C)cc2)o1)C1CCCCC1 [N-[4-(5-{[(1S)-1-cyclohexyl-2-(methylamino)-2-oxoethyl]carbamoyl}furan-2-yl)phenyl]-3-methylfuran-2-carboxamide]
63 | CNC(=O)[C@@H](NC(=O)c1ccc(-c2ccc(NC(=O)c3cc(C)c(C)o3)cc2)o1)C1CCCCC1 [N-[4-(5-{[(1S)-1-cyclohexyl-2-(methylamino)-2-oxoethyl]carbamoyl}furan-2-yl)phenyl]-4,5-dimethylfuran-2-carboxamide]
87 | CNC(=O)[C@@H](NC(=O)c1ccc(-c2ccc(NC(=O)c3cc(C)[nH]n3)cc2)o1)C1CCCCC1 [N-[4-(5-{[(1S)-1-cyclohexyl-2-(methylamino)-2-oxoethyl]carbamoyl}furan-2-yl)phenyl]-5-methyl-1H-pyrazole-3-carboxamide]
57 | CNC(=O)[C@@H](NC(=O)c1ccc(-c2ccc(NC(=O)c3ccc(C)o3)cc2)o1)C1CCCCC1 [N-[4-(5-{[(1S)-1-cyclohexyl-2-(methylamino)-2-oxoethyl]carbamoyl}furan-2-yl)phenyl]-5-methylfuran-2-carboxamide]
150 | CNC(=O)[C@@H](NC(=O)c1ccc(-c2ccc(NC(=O)c3cn4c(C)cccc4n3)cc2)o1)C1CCCCC1 [N-[4-(5-{[(1S)-1-cyclohexyl-2-(methylamino)-2-oxoethyl]carbamoyl}furan-2-yl)phenyl]-5-methylimidazo[1,2-a]pyridine-2-carboxamide]
150 | CNC(=O)[C@@H](NC(=O)c1ccc(-c2ccc(NC(=O)c3cncc(C)c3)cc2)o1)C1CCCCC1 [N-[4-(5-{[(1S)-1-cyclohexyl-2-(methylamino)-2-oxoethyl]carbamoyl}furan-2-yl)phenyl]-5-methylpyridine-3-carboxamide]
17 | CNC(=O)[C@@H](NC(=O)c1ccc(-c2ccc(NC(=O)c3cccc(C)n3)cc2)o1)C1CCCCC1 [N-[4-(5-{[(1S)-1-cyclohexyl-2-(methylamino)-2-oxoethyl]carbamoyl}furan-2-yl)phenyl]-6-methylpyridine-2-carboxamide]
99 | CNC(=O)[C@@H](NC(=O)c1ccc(-c2ccc(NC(=O)c3cn4cccc(C)c4n3)cc2)o1)C1CCCCC1 [N-[4-(5-{[(1S)-1-cyclohexyl-2-(methylamino)-2-oxoethyl]carbamoyl}furan-2-yl)phenyl]-8-methylimidazo[1,2-a]pyridine-2-carboxamide]
109 | CNC(=O)[C@@H](NC(=O)c1ccc(-c2ccc(NC(=O)c3cn4ccccc4n3)cc2)o1)C1CCCCC1 [N-[4-(5-{[(1S)-1-cyclohexyl-2-(methylamino)-2-oxoethyl]carbamoyl}furan-2-yl)phenyl]imidazo[1,2-a]pyridine-2-carboxamide]
22 | Cc1cccc(C(=O)Nc2ccc(-c3ccc(C(=O)N[C@H](C(=O)NC[C@@H](C)O)C4CCCCC4)o3)cc2)n1 [N-[4-(5-{[(1S)-1-cyclohexyl-2-{[(2R)-2-hydroxypropyl]amino}-2-oxoethyl]carbamoyl}furan-2-yl)phenyl]-6-methylpyridine-2-carboxamide]
32 | COC[C@H](C)NC(=O)[C@@H](NC(=O)c1ccc(-c2ccc(NC(=O)c3cccc(C)n3)cc2)o1)C1CCCCC1 [N-[4-(5-{[(1S)-1-cyclohexyl-2-{[(2S)-1-methoxypropan-2-yl]amino}-2-oxoethyl]carbamoyl}furan-2-yl)phenyl]-6-methylpyridine-2-carboxamide]
23 | Cc1cccc(C(=O)Nc2ccc(-c3ccc(C(=O)N[C@H](C(=O)NC[C@H](C)O)C4CCCCC4)o3)cc2)n1 [N-[4-(5-{[(1S)-1-cyclohexyl-2-{[(2S)-2-hydroxypropyl]amino}-2-oxoethyl]carbamoyl}furan-2-yl)phenyl]-6-methylpyridine-2-carboxamide]
69 | CNC(=O)[C@@H](NC(=O)c1ccc(-c2ccc(NC(=O)c3cccc(C)n3)cc2)o1)C1CC1 [N-[4-(5-{[(1S)-1-cyclopropyl-2-(methylamino)-2-oxoethyl]carbamoyl}furan-2-yl)phenyl]-6-methylpyridine-2-carboxamide]
30 | CNC(=O)[C@@H](NC(=O)c1ccc(-c2ccc(NC(=O)c3cc4ccccc4o3)cn2)o1)C1CCCCC1 [N-[6-(5-{[(1S)-1-cyclohexyl-2-(methylamino)-2-oxoethyl]carbamoyl}furan-2-yl)pyridin-3-yl]-1-benzofuran-2-carboxamide]
7 | CNC(=O)[C@@H](NC(=O)c1ccc(-c2ccc(NC(=O)c3cccc(C)n3)cn2)o1)C1CCCCC1 [N-[6-(5-{[(1S)-1-cyclohexyl-2-(methylamino)-2-oxoethyl]carbamoyl}furan-2-yl)pyridin-3-yl]-6-methylpyridine-2-carboxamide]
470 | CNC(=O)[C@@H](NC(=O)c1ccc(-c2ccc([N+](=O)[O-])cc2)o1)C1CCCCC1 [N-[(1S)-1-cyclohexyl-2-(methylamino)-2-oxoethyl)-5-(4-nitrophenyl)furan-2-carboxamide]

Reference: patent US8637550B2, “Heteroaryl diamide compounds useful as MMP-13 inhibitors” (Boehringer Ingelheim International GmbH, priority 2008, dated 2014)
